According to a melting point compilation (Tetko et al.; mined from patent text by program, amines drawn as free bases though some values may be those of a salt):

melting point [°C]	Compound
160 to 161	COc1ccc(-n2c(-c3ccc(Cl)cc3Cl)nc(C(=O)NC3CCCCC3)c2C)cc1
174 to 175	CCC(CC)c1ccc(Cl)c2nc3n(c12)CCCCN3c1ccc(N(C)C)cc1C
247 to 248	COc1cc(NC(=O)c2ccccc2)c(=O)[nH]c1C
94 to 95	C[C@H](C#Cc1sccc1COCc1ccc(F)cc1)N(O)C(N)=O
195 to 196	C[C@H](NC(=O)C[C@@H](CC(=O)O)c1ccc(F)cc1)c1ccccc1
76	CCCCCCCCCCCCCCCCCCCC1CN(C(=O)c2cc(OC)c(OC)c(OC)c2)CCN1C(=O)c1cc(OC)c(OC)c(OC)c1 (centres undefined)
193 to 195	Cc1c(CC(=O)O)c2cc(O)ccc2n1C(=O)c1ccc(OC(F)(F)F)cc1
98 to 99	CCCN(CCC)C(=O)CNc1nc(-c2ccccc2)nc(C(C)C)c1C
228 to 230	N#CC1=C(C#N)Sc2nc3cc([N+](=O)[O-])c(Cl)cc3nc2S1
123 to 125	CC(=O)Oc1cc2c(nc1C)C(=O)OC2=O
229 to 230	COc1ccc(Cl)c2c1CN(Nc1ccncc1)C2
89 to 92	CCC(C(=O)N(C)C)n1cc(C)c(-c2ccc(Cl)cc2C)n1 (centres undefined)
207 to 208	Nc1nc(-c2ccc(Cl)cc2)c(CCO)c2ncnn12
117 to 119	Cc1cc(Cl)cc2nc3c(=O)[nH][nH]c(=O)c3c(O)c12
115 to 120	COC(=O)c1nc(-c2ccc(Cl)c(OC)c2F)cc(NC(C)=O)c1OCc1ccccc1
109 to 111	NCCCc1ccc(OCCC2Oc3ccccc3N(Cc3cccc(Cl)c3)C2=O)cc1 (centres undefined)
81 to 83	Cc1cc(OC(=S)N(C)C)nc(C(Cl)(Cl)Cl)n1
160 to 162	COc1ccc(C=Nc2c3c(nc4ccccc24)CCCC3)cc1
163 to 168	CS(=O)(=O)Nc1c([N+](=O)[O-])cnn1-c1c(F)c(F)c(C(F)(F)F)c(F)c1F
110 to 114	CSC(=S)N1CCN(Cc2ccccc2N)CC1
105 to 106	CC(=O)NC1(C)CCN(Cc2ccccc2)C1 (centres undefined)
147 to 148	NNCCCS(=O)(=O)O
189 to 191	COC[C@@H](O)CN1CCC(c2ccc(-c3nc4c(N[C@H]5[C@@H](C(N)=O)[C@@H]6C=C[C@H]5C6)c(Cl)cnc4[nH]3)c(OC)c2)CC1
194 to 240	O=C(O)COc1c(Br)cc(-c2c3ccccc3c(Br)c3oc4ccccc4c23)c(O)c1Br

melting point [°C]	Compound
95 to 96	CCCC(=O)c1cnc2c(C(O)CN(C)C)cccc2c1Nc1ccccc1C (centres undefined)
267 to 268	CCOC(=O)c1cc(O)c2cc3c(O)cc(C(=O)OCC)nc3c(N(CC)CC)c2n1
128 to 130	CCOC(=O)C(=CNc1ccc2nc(C)n(C)c2n1)C(=O)OCC
93 to 94	CN(C)C1CCN(c2nccc(Oc3ccc(NC(=O)c4cc(F)cc(N5CCCCC5)c4)c4ccccc34)n2)C1 (centres undefined)
104	CSc1c(C=O)c(=O)n(C)c(=O)n1C
57 to 58	CCCCCCCCCCOc1cnc(-c2ccc(C#CCCCC(C)OC(C)=O)cc2)nc1 (centres undefined)
115 to 116	N#Cc1ccc(-c2ccco2)cn1
207 to 209	COc1ccc(S(=O)(=O)Nc2ccccc2/C=C/c2ccncc2)cc1
200	CCNC(=O)c1c(Br)ccc(OC)c1[Si](C)(C)C
123 to 127	O=C1CC(O)CC(C=CC2=C(c3ccc(F)cc3)CC3CCC2C3)O1 (centres undefined)
115	Nc1cccc2c(OCc3ccccc3)ccnc12
167 to 171	COc1ccc(C(=O)Nc2ccc(C(=O)Cl)c3ccccc23)cc1OC
242	CCOC(=O)c1c(O)c2cc(C)ccc2[nH]c1=O
> 250	O=C1Nc2cccnc2C12COc1cc3c(cc12)OCCO3 (centres undefined)
193 to 198	COc1ccc2nnc(-c3ncc([N+](=O)[O-])n3C)n2n1
> 300	CC1CN(c2c(F)cc3c(=O)c(C(=O)O)cn(C4CC4)c3c2C#N)CCN1 (centres undefined)
148 to 150	COc1ccc(F)cc1C(C)(C)CC(O)(Cc1cccc(-c2cccnc2)c1)C(F)(F)F (centres undefined)
59 to 62	CC(O)(C(=O)NCCC(F)(F)F)C(=O)NC1C(=O)N(CCO)c2ccccc2-c2ccccc21 (centres undefined)
49 to 50	CCSC1CC(=O)CC(SCC)C1(O)c1ccccc1 (centres undefined)
212 to 215	CCC(=O)Oc1ccc2nc(NC(=O)Nc3ccccc3)sc2c1
80 to 83	Fc1ccc(-c2cnc(SC(F)(F)F)nc2-c2ccc(F)cc2)cc1
149 to 153	COc1nc(NC(=O)NS(=O)(=O)c2sccc2C(F)=C(F)C(F)(F)F)nc(OC)n1
149 to 150	O=C1c2ccccc2-c2c(Cl)nc3ccccc3c21
149 to 150	CCC(C)C[C@@H]1O[C@H](CC(=O)Nc2ccc(OC(F)(F)C(=O)O)cc2)C(=O)N(CC(C)(C)CO)c2ccc(Cl)cc21 (some centres undefined)

melting point [°C]	Compound
136 to 137	COc1ccc(-c2nn(CC=Cc3ccccc3)c(=O)cc2-c2ccccc2)cc1
124	CCOc1nc(Cl)nc(N(C)C)n1
129 to 130	CNC(=S)SCCC(=O)N1CCC[C@H]1C(=O)OC(C)(C)C
239 to 241	COc1cc(C(=O)O)ccc1-c1ccncc1
124 to 125	COc1ccc(C(O)Cc2c(Cl)cncc2Cl)cc1OC1CCCC1 (centres undefined)
163	CCC1(C2CCCC2)Cc2cc(OC)c(Cl)c(Cl)c2C1=O (centres undefined)
52 to 54	O=C1NC(=O)C(N(Cc2ccc(Br)cc2)c2ccc(CCNCC(O)COc3ccccc3)cc2)S1 (centres undefined)
107 to 111	CCCCCCCCCCCC1CNc2cc(C(=O)O)ccc21 (racemic)
154 to 155	Cc1oc(-c2ccco2)nc1COc1ccc(Cc2nc(CCC(=O)O)c(-c3ccccc3)o2)cc1
207 to 208	O=c1[nH]c2cscc2c(=O)n1CCN1CCN(c2cccc(Cl)c2)CC1
217 to 220	CCOC(=O)c1cc(NC(=O)C(Cc2cscn2)NC(=O)OC(C)(C)C)c[nH]1 (centres undefined)
54.5 to 55.4	O=[N+]([O-])c1c(C2C=CCCC2)ccnc1Cl (centres undefined)
45 to 55	C[C@@H](O)c1nccc(N2CCC(=Cc3cccc(Cl)c3)CC2)n1
75 to 76	CCC(CC)(CC(=O)Nc1cccc(OCc2ccc3ccc(C)cc3n2)c1)C(=O)O
85 to 90	O=C1CCc2c1cccc2-c1ccccc1
124 to 126	CN(C)CC(C)(C)CNc1nccc(-c2c(-c3ccc(F)cc3Cl)nc3occn23)n1
65 to 66	COc1ccc2cc([C@H](C)C(=O)OC[C@@]3(C)COC(C)(C)O3)ccc2c1
229	CN1CCOc2cc(S(=O)(=O)n3c(COC(C)(C)C(=O)O)cc4nc(Cl)ccc43)ccc21
136	CCOC(=O)C(C)Oc1ccc(Nc2cnc3cc(Cl)ccc3n2)cc1 (centres undefined)
86 to 87	COc1ccc(C[C@H](NC(=O)OCc2ccccc2)[C@H]2CO2)cc1
185 to 186	C[C@@H](n1cnc2cc(Br)c(F)cc2c1=O)[C@](O)(Cn1cncn1)c1ccc(F)cc1F
117 to 119	CCOC1C=CC(=O)N1S(=O)(=O)c1ccccc1 (centres undefined)
217 to 220	O=C(O)c1cn(C2CC2)c2c(Cl)c(N3CC4CCCC3CN4)c(F)cc2c1=O (centres undefined)
135 to 137	Fc1ccc(CCCC(c2ccc(F)cc2)c2c[nH]cn2)cc1 (centres undefined)

melting point [°C]	Compound
157 to 158	COc1ccc(N2CCCn3c2nc2c(Cl)ccc(C(OCC(F)(F)F)C4CC4)c23)c(C)c1 (centres undefined)
83 to 86	O=C1N(CC2CCCN2)c2ccccc2C12COc1cc3c(cc12)CCO3 (centres undefined)
149	COc1ccc(C(=O)c2cc(Br)ccc2NC(=O)C(F)(F)F)cc1
68 to 69.5	CCOC(=O)C=Cc1cc(C=CC(=O)OCC)cc(CO)c1
156 to 158	COC(=O)CCc1oc2ccc(C#N)cc2c1C(=O)c1ccc(O)cc1
126 to 127	Nc1c(CCO)cccc1C(=O)c1ccc(Br)cc1
73 to 75	COCCNC(=O)C(C)Oc1ccc(Oc2ccc(C(F)(F)F)cc2)cc1 (centres undefined)
103	COc1cccc(CN=Cc2cccc(O)c2)c1
100 to 104	COC(=O)CC1(CC(=O)N2CCN(C(=O)CC3=C(C(=O)OC)[C@H](c4c(Cl)cccc4Cl)C(C(=O)OC)=C(C[S@](=O)c4ccccc4)N3)CC2)CCCC1
113 to 115	CC(C)(C)c1cc(OCCCCCCc2nnn[nH]2)cc(C(C)(C)C)c1
190 to 191	COc1ccc(Sc2cnc(NC(C)=O)s2)cc1
85 to 87	COc1cc(C=CC(=O)Cc2ccccc2)ccc1O
73 to 74	CC(C)Oc1ccc(N(N)C(=O)N(C)C)cc1Cl
90.8 to 91.5	COC(=O)c1ccc(OC(C)c2ccccc2OCc2ccccc2)cc1 (centres undefined)
273 to 274	CC(C)OC(=O)c1cc2c(cn1)[nH]c1cccc(Oc3ccc(Cl)cc3)c12
210 to 215	CC(C)(C)C(=O)Nc1ccc(-c2nc3n(c2-c2ccc(NC(=O)C(C)(C)C)cc2)CCS3)cc1
176 to 177	COc1ccc2c(c1)cc(C(=O)Nc1ccc3c(ccn3C)c1)n2Cc1cccc(C(F)(F)F)c1
167 to 169	CCN(CC)c1nc(N)c2cc(OC)c(OC)cc2n1
172 to 174	O=C(O)C(=O)CC(=O)c1cccn1Cc1cccc2ccccc12
141 to 142	O=C(O)CCC/C=C\C[C@@H]1[C@H]2CC[C@H](C2)[C@H]1NC(=O)c1csc2ccc(O)cc12
234 to 237	Nc1c2c(nc3cc(F)ccc13)CCSC2
174 to 175	COc1ccc(-c2nc(CNC(=O)C3=NNC(=O)CC3)sc2-c2ccc(OC)cc2)cc1
124 to 125	O=S(=O)(Oc1cccc(OCCC(c2ccccc2)(c2ccccc2)c2ccccc2)c1)c1ccccc1
251 to 254	Nc1nc2c(ncn2COCCO)c(=S)[nH]1

Compound	melting point [°C]
ClC1=NCc2c(-c3noc(C4CC4)n3)ncn2-c2ccc(Cl)cc21	200
CCCCOS(C)(=O)=O	100 to 101
CCNC(=O)c1ccc(N2CCNCC2)c(Cl)c1	117 to 119
